Test results as given in US20240033272A1, “USE OF C[…] THE TREATMENT OF SEIZURES ASSOCIATED WITH HERPES SIMPLEX VIRUS” (GW Research Limited, priority 2020, published 2024).

System: patients diagnosed with herpes simplex virus (seizures associated with herpes simplex virus)
Test: Open label, expanded-access program: seizure frequency recorded by caregivers in a diary, change relative to baseline
Assay type: in vivo, human
Set-up: Reduction in myoclonic seizures over the treatment period / Reduction in absence seizures over the treatment period / Reduction in focal seizures with impairment over the treatment period / Reduction in tonic-clonic seizures over the treatment period / Reduction in atonic seizures over the treatment period / Reduction in tonic seizures over the treatment period: concentration or dose not given beside the values; Seizure frequency, tonic-clonic / Seizure frequency, myoclonic / Seizure frequency, absence / Seizure frequency, focal with impairment / Seizure frequency, tonic / Seizure frequency, focal without impairment / Seizure frequency, atonic: unit not given here
Conditions: for Seizure frequency, atonic: baseline 20.0
Experimental: Subjects were required to be on one or more AEDs at stable doses for a minimum of two weeks prior to baseline and to have stable vagus nerve stimulation (VNS) settings and ketogenic diet ratios for a minimum of four weeks prior to baseline.
Modifications were made to concomitant AEDs as per clinical indication.
Seizure frequency, intensity, and duration were recorded by caregivers in a diary during a baseline period of at least 28 days. Changes in seizure frequency relative to baseline were calculated after at least 2 weeks and at defined timepoints of treatment.
Patients may be defined as responders if they had more than 50% reduction in seizure frequency compared to baseline. The percent change in seizure frequency was calculated as follows: […]
The percent change of seizure frequency may be calculated for any time interval where seizure number has been recorded. For the purpose of this example the percent change of seizure frequency for the end of the treatment period was calculated as follows: […]

[1] = Patient 1, treated for 48 weeks, vs baseline
[2] = Patient 2, 4 weeks, CBD 25.0 mg/kg/day, baseline 8.0
[3] = Patient 2, 8 weeks, CBD 25.0 mg/kg/day, baseline 8.0
[4] = Patient 2, 24 weeks, CBD 25.0 mg/kg/day, baseline 8.0
[5] = Patient 3, treated for 108 weeks, vs baseline

C=C(C)[C@@H]1CCC(C)=C[C@H]1c1c(O)cc(CCCCC)cc1O [CBD, cannabidiol]
Time of treatment after which patient became completely seizure free, focal seizures with impairment (Patient 1): 24 weeks | Time of treatment after which patient became completely seizure free, myoclonic seizures (Patient 1): 8 weeks | Seizure frequency, tonic-clonic (Patient 1, 4 weeks, CBD 5.0 mg/kg/day, baseline 0.0): 14.0 | Seizure frequency, myoclonic (Patient 1, 4 weeks, CBD 5.0 mg/kg/day, baseline 75.0): 4.0 | Seizure frequency, focal with impairment (Patient 1, 4 weeks, CBD 5.0 mg/kg/day, baseline 100.0): 14.0 | Seizure frequency, absence (Patient 1, 4 weeks, CBD 5.0 mg/kg/day, baseline 2500.0): 800.0 | Seizure frequency, tonic-clonic (Patient 1, 8 weeks, CBD 10.0 mg/kg/day, baseline 0.0): 20.0 | Seizure frequency, myoclonic (Patient 1, 8 weeks, CBD 10.0 mg/kg/day, baseline 75.0): 0.0 | Seizure frequency, focal with impairment (Patient 1, 8 weeks, CBD 10.0 mg/kg/day, baseline 100.0): 12.0 | Seizure frequency, absence (Patient 1, 8 weeks, CBD 10.0 mg/kg/day, baseline 2500.0): 1390.0 | Seizure frequency, tonic-clonic (Patient 1, 16 weeks, CBD 15.0 mg/kg/day, baseline 0.0): 20.0 | Seizure frequency, myoclonic (Patient 1, 16 weeks, CBD 15.0 mg/kg/day, baseline 75.0): 0.0 | Seizure frequency, focal with impairment (Patient 1, 16 weeks, CBD 15.0 mg/kg/day, baseline 100.0): 7.0 | Seizure frequency, absence (Patient 1, 16 weeks, CBD 15.0 mg/kg/day, baseline 2500.0): 250.0 | Seizure frequency, tonic-clonic (Patient 1, 24 weeks, CBD 20.0 mg/kg/day, baseline 0.0): 79.6 | Seizure frequency, myoclonic (Patient 1, 24 weeks, CBD 20.0 mg/kg/day, baseline 75.0): 0.0 | Seizure frequency, focal with impairment (Patient 1, 24 weeks, CBD 20.0 mg/kg/day, baseline 100.0): 0.0 | Seizure frequency, absence (Patient 1, 24 weeks, CBD 20.0 mg/kg/day, baseline 2500.0): 398.0 | Seizure frequency, tonic-clonic (Patient 1, 36 weeks, CBD 25.0 mg/kg/day, baseline 0.0): 31.3 | Seizure frequency, myoclonic (Patient 1, 36 weeks, CBD 25.0 mg/kg/day, baseline 75.0): 0.0 | Seizure frequency, focal with impairment (Patient 1, 36 weeks, CBD 25.0 mg/kg/day, baseline 100.0): 0.0 | Seizure frequency, absence (Patient 1, 36 weeks, CBD 25.0 mg/kg/day, baseline 2500.0): 466.6 | Seizure frequency, tonic-clonic (Patient 1, 48 weeks, CBD 25.0 mg/kg/day, baseline 0.0): 16.0 | Seizure frequency, myoclonic (Patient 1, 48 weeks, CBD 25.0 mg/kg/day, baseline 75.0): 0.0 | Seizure frequency, focal with impairment (Patient 1, 48 weeks, CBD 25.0 mg/kg/day, baseline 100.0): 0.0 | Seizure frequency, absence (Patient 1, 48 weeks, CBD 25.0 mg/kg/day, baseline 2500.0): 231.7 | Reduction in absence seizures over the treatment period [1]: 90.7% | Reduction in focal seizures with impairment over the treatment period [1]: 100% | Reduction in myoclonic seizures over the treatment period [1]: 100% | Seizure frequency, tonic-clonic (Patient 2, 4 weeks, CBD 25.0 mg/kg/day, baseline 1.0): 0.0 | Seizure frequency, absence [2]: 6.0 | Seizure frequency, focal without impairment [2]: 8.0 | Seizure frequency, tonic (Patient 2, 4 weeks, CBD 25.0 mg/kg/day, baseline 32.0): 44.0 | Seizure frequency, tonic-clonic (Patient 2, 8 weeks, CBD 25.0 mg/kg/day, baseline 1.0): 0.0 | Seizure frequency, absence [3]: 0.0 | Seizure frequency, focal without impairment [3]: 0.0 | Seizure frequency, tonic (Patient 2, 8 weeks, CBD 25.0 mg/kg/day, baseline 32.0): 24.0 | Seizure frequency, tonic-clonic (Patient 2, 24 weeks, CBD 25.0 mg/kg/day, baseline 1.0): 0.5 | Seizure frequency, absence [4]: 12.0 | Seizure frequency, focal without impairment [4]: 17.0 | Seizure frequency, tonic (Patient 2, 24 weeks, CBD 25.0 mg/kg/day, baseline 32.0): 56.0 | Reduction in tonic-clonic seizures over the treatment period (Patient 2, treated for 24 weeks, vs baseline): 50% | Seizure frequency, tonic-clonic (Patient 3, 2 weeks, CBD 5.0 mg/kg/day, baseline 6.0): 8.0 | Seizure frequency, myoclonic (Patient 3, 2 weeks, CBD 5.0 mg/kg/day, baseline 32.0): 6.0 | Seizure frequency, tonic-clonic (Patient 3, 4 weeks, CBD 10.0 mg/kg/day, baseline 6.0): 5.3 | Seizure frequency, myoclonic (Patient 3, 4 weeks, CBD 10.0 mg/kg/day, baseline 32.0): 9.3 | Seizure frequency, tonic-clonic (Patient 3, 8 weeks, CBD 20.0 mg/kg/day, baseline 6.0): 6.0 | Seizure frequency, myoclonic (Patient 3, 8 weeks, CBD 20.0 mg/kg/day, baseline 32.0): 16.0 | Seizure frequency, tonic-clonic (Patient 3, 16 weeks, CBD 25.0 mg/kg/day, baseline 6.0): 11.0 | Seizure frequency, myoclonic (Patient 3, 16 weeks, CBD 25.0 mg/kg/day, baseline 32.0): 4.0 | Seizure frequency, tonic-clonic (Patient 3, 36 weeks, CBD 30.0 mg/kg/day, baseline 6.0): 2.6 | Seizure frequency, myoclonic (Patient 3, 36 weeks, CBD 30.0 mg/kg/day, baseline 32.0): 9.3 | Seizure frequency, tonic-clonic (Patient 3, 48 weeks, CBD 35.0 mg/kg/day, baseline 6.0): 7.7 | Seizure frequency, myoclonic (Patient 3, 48 weeks, CBD 35.0 mg/kg/day, baseline 32.0): 18.4 | Seizure frequency, tonic-clonic (Patient 3, 60 weeks, CBD 35.0 mg/kg/day, baseline 6.0): 6.6 | Seizure frequency, myoclonic (Patient 3, 60 weeks, CBD 35.0 mg/kg/day, baseline 32.0): 19.4 | Seizure frequency, tonic-clonic (Patient 3, 72 weeks, CBD 30.0 mg/kg/day, baseline 6.0): 3.4 | Seizure frequency, myoclonic (Patient 3, 72 weeks, CBD 30.0 mg/kg/day, baseline 32.0): 9.7 | Seizure frequency, tonic-clonic (Patient 3, 96 weeks, CBD 30.0 mg/kg/day, baseline 6.0): 1.0 | Seizure frequency, myoclonic (Patient 3, 96 weeks, CBD 30.0 mg/kg/day, baseline 32.0): 13.8 | Seizure frequency, tonic-clonic (Patient 3, 108 weeks, CBD 30.0 mg/kg/day, baseline 6.0): 0.9 | Seizure frequency, myoclonic (Patient 3, 108 weeks, CBD 30.0 mg/kg/day, baseline 32.0): 13.8 | Reduction in myoclonic seizures over the treatment period [5]: 56.9% | Reduction in tonic-clonic seizures over the treatment period [5]: 85% | Seizure frequency, tonic-clonic (Patient 4, 2 weeks, CBD 5.0 mg/kg/day, baseline 10.0): 2.0 | Seizure frequency, focal with impairment (Patient 4, 2 weeks, CBD 5.0 mg/kg/day, baseline 14.0): 4.0 | Seizure frequency, atonic (Patient 4, 2 weeks, CBD 5.0 mg/kg/day): 0.0 | Seizure frequency, tonic-clonic (Patient 4, 4 weeks, CBD 10.0 mg/kg/day, baseline 10.0): 2.0 | Seizure frequency, focal with impairment (Patient 4, 4 weeks, CBD 10.0 mg/kg/day, baseline 14.0): 2.0 | Seizure frequency, atonic (Patient 4, 4 weeks, CBD 10.0 mg/kg/day): 1.0 | Seizure frequency, tonic-clonic (Patient 4, 8 weeks, CBD 20.0 mg/kg/day, baseline 10.0): 0.0 | Seizure frequency, focal with impairment (Patient 4, 8 weeks, CBD 20.0 mg/kg/day, baseline 14.0): 0.0 | Seizure frequency, atonic (Patient 4, 8 weeks, CBD 20.0 mg/kg/day): 0.0 | Seizure frequency, tonic-clonic (Patient 4, 12 weeks, CBD 20.0 mg/kg/day, baseline 10.0): 0.0 | Seizure frequency, focal with impairment (Patient 4, 12 weeks, CBD 20.0 mg/kg/day, baseline 14.0): 0.0 | Seizure frequency, atonic (Patient 4, 12 weeks, CBD 20.0 mg/kg/day): 5.0
